Assay results taken from the NIST ThermoML archive (doi:10.1021/je034290l).
Numbers after ± are expanded uncertainties.

Key:
[1] = Liquid
[2] = refractive index (Na D-line) (dimensionless); details: 318.15 K; 101.33 kPa; Liquid; Standard Abbe refractometry
[3] = excess molar enthalpy (molar enthalpy of mixing); xn = mol fraction of the nth substance listed; details: 101.32 kPa, Liquid, Calvet calorimetry
[4] = xn = mol fraction of the nth substance listed; details: 101.32 kPa, Liquid

COC(C)=O [methyl ethanoate]
[1]
Details	vapor or sublimation pressure [kPa]
305.21 K	39.85 ± 0.69
305.85 K	41.28 ± 0.7
306.84 K	42.46 ± 0.71
307.84 K	44.04 ± 0.71
308.13 K	45.37 ± 0.72
308.75 K	46.97 ± 0.73
309.72 K	48.14 ± 0.73
310.17 K	49.41 ± 0.74
311.19 K	50.42 ± 0.75
311.59 K	51.81 ± 0.75
312.76 K	53.53 ± 0.76
313.38 K	54.58 ± 0.77
313.74 K	55.9 ± 0.77
314.18 K	57.49 ± 0.78
314.88 K	58.59 ± 0.79
315.56 K	60.05 ± 0.79
316.06 K	61.43 ± 0.8
316.57 K	62.5 ± 0.81
317.05 K	63.9 ± 0.81
318.34 K	66.51 ± 0.83
318.69 K	67.81 ± 0.83
319.37 K	69.23 ± 0.84
319.93 K	70.45 ± 0.85
320.11 K	71.01 ± 0.85
320.34 K	71.9 ± 0.85
320.65 K	73.35 ± 0.86
321.34 K	74.58 ± 0.87
321.46 K	75.27 ± 0.87
321.72 K	76.13 ± 0.87
322.07 K	77.22 ± 0.88
322.36 K	77.87 ± 0.88
322.62 K	78.83 ± 0.89
323.07 K	80.15 ± 0.89
323.49 K	81.23 ± 0.9
324.29 K	82.59 ± 0.91
324.58 K	83.84 ± 0.91
324.95 K	85.23 ± 0.92
325.33 K	86.76 ± 0.93
325.71 K	87.86 ± 0.93
326.25 K	89.23 ± 0.94
326.63 K	90.98 ± 0.95
327.08 K	92.06 ± 0.95
327.54 K	93.46 ± 0.96
328 K	94.82 ± 0.97
328.17 K	96.1 ± 0.98
328.96 K	97.67 ± 0.98
329.38 K	99.14 ± 0.99
329.55 K	100.18 ± 0.99
329.86 K	101.32 ± 1
330.09 K	102.6 ± 1
330.43 K	104.14 ± 1
330.97 K	105.19 ± 1
331.43 K	106.75 ± 1
331.76 K	107.92 ± 1
332.06 K	109.42 ± 1
332.52 K	110.71 ± 1.1
332.77 K	112.16 ± 1.1
333.1 K	113.39 ± 1.1
333.6 K	114.47 ± 1.1
333.94 K	115.87 ± 1.1
334.06 K	117.43 ± 1.1
334.27 K	118.52 ± 1.1
334.73 K	120.12 ± 1.1
335.06 K	121.46 ± 1.1
335.23 K	122.57 ± 1.1
335.73 K	123.95 ± 1.1
336.07 K	125.35 ± 1.1
336.48 K	126.88 ± 1.1
336.86 K	127.85 ± 1.1
337.19 K	129.37 ± 1.1
337.53 K	130.87 ± 1.1
337.78 K	131.93 ± 1.1
337.9 K	133.48 ± 1.2
338.15 K	134.72 ± 1.2
338.66 K	136.16 ± 1.2
338.82 K	137.37 ± 1.2
339.07 K	138.56 ± 1.2
339.41 K	140.07 ± 1.2
339.66 K	141.45 ± 1.2
339.95 K	142.53 ± 1.2
340.33 K	144.04 ± 1.2
340.49 K	145.51 ± 1.2
340.95 K	146.43 ± 1.2
341.08 K	147.88 ± 1.2
341.45 K	149.13 ± 1.2
341.79 K	150.58 ± 1.2
342 K	151.93 ± 1.2
342.37 K	153.34 ± 1.3
342.46 K	154.61 ± 1.3
342.85 K	155.92 ± 1.3
343.21 K	157.52 ± 1.3
343.36 K	158.57 ± 1.3
343.46 K	160.01 ± 1.3
343.67 K	161.1 ± 1.3
344.09 K	162.7 ± 1.3
344.46 K	164.2 ± 1.3
344.67 K	165.28 ± 1.3
344.88 K	166.78 ± 1.3
345.05 K	168.02 ± 1.3
345.26 K	169.24 ± 1.3
345.47 K	170.37 ± 1.3
345.84 K	171.92 ± 1.4
345.96 K	173.2 ± 1.4

Details	mass density [kg/m3]
[1], 318.15 K, 101.33 kPa	900.19 ± 0.36

Details	refractive index
[2]	1.3486 ± 0.0007

COC=O [methyl methanoate] + CC(C)(C)O
299.15 K
Details	excess molar enthalpy, [3] [kcal/mol]	excess molar volume, [4] [m3/mol]
x1 = 0.0627	–	2.95e-07 ± 1.7e-08
x1 = 0.0899	0.158 ± 0.00206	–
x1 = 0.1002	–	4.51e-07 ± 1.8e-08
x1 = 0.1302	–	5.67e-07 ± 1.8e-08
x1 = 0.1667	–	6.88e-07 ± 1.9e-08
x1 = 0.202	0.336 ± 0.0043	–
x1 = 0.2419	–	8.67e-07 ± 2e-08
x1 = 0.2873	0.451 ± 0.00574	–
x1 = 0.319	–	9.88e-07 ± 2e-08
x1 = 0.3526	–	1.025e-06 ± 2e-08
x1 = 0.3657	0.528 ± 0.00669	–
x1 = 0.4033	–	1.061e-06 ± 2e-08
x1 = 0.4323	0.57 ± 0.00717	–
x1 = 0.4976	–	1.068e-06 ± 2e-08
x1 = 0.5033	0.594 ± 0.00741	–
x1 = 0.5076	–	1.067e-06 ± 2e-08
x1 = 0.5567	0.594 ± 0.00741	–
x1 = 0.5726	–	1.036e-06 ± 2e-08
x1 = 0.6017	0.581 ± 0.00717	–
x1 = 0.6163	–	9.94e-07 ± 2e-08
x1 = 0.6287	0.569 ± 0.00717	–
x1 = 0.6512	–	9.55e-07 ± 2e-08
x1 = 0.6747	0.538 ± 0.00669	–
x1 = 0.7222	0.491 ± 0.00621	8.68e-07 ± 2e-08
x1 = 0.7382	–	8.34e-07 ± 1.9e-08
x1 = 0.7721	0.433 ± 0.0055	–
x1 = 0.7939	–	7.46e-07 ± 1.9e-08
x1 = 0.8111	–	7.04e-07 ± 1.9e-08
x1 = 0.8206	0.364 ± 0.00454	–
x1 = 0.8697	0.282 ± 0.00359	–
x1 = 0.8902	–	5.01e-07 ± 1.8e-08
x1 = 0.9187	0.186 ± 0.00239	–
x1 = 0.9574	–	2.43e-07 ± 1.7e-08
x1 = 0.9598	0.0997 ± 0.00139	–

CCC(=O)OC [methyl propanoate] + CC(C)(C)O
Details	excess molar enthalpy [kcal/mol]	excess molar volume [m3/mol]
[3], 299.15 K, x1 = 0.0603	0.1 ± 0.00136	–
[3], 299.15 K, x1 = 0.1414	0.213 ± 0.00263	–
[3], 299.15 K, x1 = 0.2285	0.317 ± 0.00406	–
[3], 299.15 K, x1 = 0.3164	0.395 ± 0.00502	–
[3], 299.15 K, x1 = 0.3971	0.442 ± 0.0055	–
[3], 299.15 K, x1 = 0.4573	0.461 ± 0.00574	–
[3], 299.15 K, x1 = 0.4705	0.464 ± 0.00574	–
[3], 299.15 K, x1 = 0.5159	0.467 ± 0.00574	–
[3], 299.15 K, x1 = 0.5343	0.465 ± 0.00574	–
[3], 299.15 K, x1 = 0.5899	0.453 ± 0.00574	–
[3], 299.15 K, x1 = 0.6328	0.435 ± 0.0055	–
[3], 299.15 K, x1 = 0.6447	0.428 ± 0.00526	–
[3], 299.15 K, x1 = 0.7116	0.387 ± 0.00478	–
[3], 299.15 K, x1 = 0.7778	0.328 ± 0.00406	–
[3], 299.15 K, x1 = 0.8496	0.244 ± 0.00311	–
[3], 299.15 K, x1 = 0.9351	0.115 ± 0.00151	–
[3], 318.15 K, x1 = 0.0486	0.0779 ± 0.0011	–
[3], 318.15 K, x1 = 0.1007	0.153 ± 0.00198	–
[3], 318.15 K, x1 = 0.1707	0.24 ± 0.00311	–
[3], 318.15 K, x1 = 0.2374	0.31 ± 0.00382	–
[3], 318.15 K, x1 = 0.3021	0.364 ± 0.00454	–
[3], 318.15 K, x1 = 0.3578	0.4 ± 0.00502	–
[3], 318.15 K, x1 = 0.4076	0.425 ± 0.00526	–
[3], 318.15 K, x1 = 0.4404	0.439 ± 0.0055	–
[3], 318.15 K, x1 = 0.4827	0.445 ± 0.0055	–
[3], 318.15 K, x1 = 0.5312	0.45 ± 0.00574	–
[3], 318.15 K, x1 = 0.582	0.441 ± 0.0055	–
[3], 318.15 K, x1 = 0.6358	0.423 ± 0.00526	–
[3], 318.15 K, x1 = 0.6986	0.393 ± 0.00502	–
[3], 318.15 K, x1 = 0.7666	0.336 ± 0.0043	–
[3], 318.15 K, x1 = 0.8289	0.272 ± 0.00359	–
[3], 318.15 K, x1 = 0.8931	0.189 ± 0.00263	–
[3], 318.15 K, x1 = 0.9582	0.0935 ± 0.00146	–
[4], 303.15 K, x1 = 0.0517	–	1.52e-07 ± 1.6e-08
[4], 303.15 K, x1 = 0.1081	–	2.93e-07 ± 1.7e-08
[4], 303.15 K, x1 = 0.1525	–	3.88e-07 ± 1.7e-08
[4], 303.15 K, x1 = 0.202	–	4.71e-07 ± 1.8e-08
[4], 303.15 K, x1 = 0.2516	–	5.43e-07 ± 1.8e-08
[4], 303.15 K, x1 = 0.3129	–	6.1e-07 ± 1.8e-08
[4], 303.15 K, x1 = 0.3638	–	6.48e-07 ± 1.9e-08
[4], 303.15 K, x1 = 0.406	–	6.67e-07 ± 1.9e-08
[4], 303.15 K, x1 = 0.4603	–	6.78e-07 ± 1.9e-08
[4], 303.15 K, x1 = 0.5167	–	6.79e-07 ± 1.9e-08
[4], 303.15 K, x1 = 0.5558	–	6.68e-07 ± 1.9e-08
[4], 303.15 K, x1 = 0.6086	–	6.41e-07 ± 1.8e-08
[4], 303.15 K, x1 = 0.6546	–	6.07e-07 ± 1.8e-08
[4], 303.15 K, x1 = 0.7197	–	5.43e-07 ± 1.8e-08
[4], 303.15 K, x1 = 0.752	–	4.91e-07 ± 1.8e-08
[4], 303.15 K, x1 = 0.8122	–	4.15e-07 ± 1.7e-08
[4], 303.15 K, x1 = 0.8545	–	3.48e-07 ± 1.7e-08
[4], 303.15 K, x1 = 0.9065	–	2.53e-07 ± 1.7e-08
[4], 303.15 K, x1 = 0.9394	–	1.73e-07 ± 1.6e-08
[4], 318.15 K, x1 = 0.075	–	1.94e-07 ± 1.6e-08
[4], 318.15 K, x1 = 0.1476	–	3.15e-07 ± 1.7e-08
[4], 318.15 K, x1 = 0.1952	–	4.16e-07 ± 1.7e-08
[4], 318.15 K, x1 = 0.2636	–	4.98e-07 ± 1.8e-08
[4], 318.15 K, x1 = 0.3159	–	5.59e-07 ± 1.8e-08
[4], 318.15 K, x1 = 0.3628	–	6.06e-07 ± 1.8e-08
[4], 318.15 K, x1 = 0.4165	–	6.39e-07 ± 1.8e-08
[4], 318.15 K, x1 = 0.4931	–	6.48e-07 ± 1.9e-08
[4], 318.15 K, x1 = 0.5472	–	6.41e-07 ± 1.8e-08
[4], 318.15 K, x1 = 0.6296	–	6.09e-07 ± 1.8e-08
[4], 318.15 K, x1 = 0.6429	–	5.87e-07 ± 1.8e-08
[4], 318.15 K, x1 = 0.7013	–	5.41e-07 ± 1.8e-08
[4], 318.15 K, x1 = 0.795	–	4.27e-07 ± 1.8e-08
[4], 318.15 K, x1 = 0.8267	–	3.68e-07 ± 1.7e-08
[4], 318.15 K, x1 = 0.8822	–	2.81e-07 ± 1.7e-08
[4], 318.15 K, x1 = 0.9493	–	1.39e-07 ± 1.6e-08
